Test results reported in ChEMBL document CHEMBL6121046, “Discovery of Novel Hydrazide-Based HDAC3 Inhibitors as Epigenetic Immunomodulators for Cancer Immunotherapy” (J Med Chem, 2025).
Active and inactive are the calls of the source. No cut-off for these calls is given here.

Experiments:
[1] = tested on: Mus musculus; test: (§1) Immunomodulatory effect in C57BL/6 mouse allografted mouse MC38 cells assessed as increase in tumor infiltrating lymphocytes by measuring increase in CD4+ T helper cells in mouse blood at 50 mg/kg, po treated 5 days after cell inoculation 19 th day by flow cytometry analysis (reference value: 0.27%); type: functional; conditions: time 15 day
[2] = tested on: Mus musculus; test: as §1, with “lymph nodes” for “blood”, “15.5%)” for “0.27%)”; type: functional; conditions: time 15 day
[3] = tested on: MC-38; test: In vivo antitumor activity against mouse MC38 cells allografted in C57BL/6 mouse assessed as decrease in […] positive cells in tumor at 50 mg/kg, po treated 5 days after cell inoculation 19 th day by immunofluorescence analysis; type: functional, organism-based; conditions: time 15.0 day
[4] = tested on: MC-38; test: In vivo antitumor activity against mouse MC38 cells allografted in C57BL/6 mouse assessed as increase in Tunel-positive cells in tumor at 50 mg/kg, po treated 5 days after cell inoculation 19 th day by immunofluorescence analysis; type: functional, organism-based; conditions: time 15.0 day
[5] = tested on: MC-38; test: In vivo antitumor activity against mouse MC38 cells allografted in C57BL/6 mouse assessed as tumor growth inhibition at 50 mg/kg, po treated 5 days after cell inoculation 19 th day relative to control; type: functional; conditions: MC-38, 360 h, time 15 day, read-out: TGI
[6] = tested on: Mus musculus; test: (§2) Immunomodulatory effect in C57BL/6 mouse allografted mouse MC38 cells assessed as increase in tumor infiltrating lymphocytes by measuring increase in CD4+ T helper cells in tumor at 50 mg/kg, po treated 5 days after cell inoculation 19 th day by flow cytometry analysis (reference value: 2.57%); type: functional; conditions: time 15 day
[7] = tested on: Mus musculus; test: (§3) Immunomodulatory effect in C57BL/6 mouse allografted mouse MC38 cells assessed as increase in tumor infiltrating lymphocytes by measuring increase in CD8+ T […] cells in tumor at 50 mg/kg, po treated 5 days after cell inoculation 19 th day by flow cytometry analysis (reference value: 2.32%); type: functional; conditions: time 15 day
[8] = Oral bioavailability in C57BL/6 mouse allografted with mouse MC38 cells at 50 mg/kg; type: ADME, organism-based; conditions: in vivo
[9] = tested on: Mus musculus; test: as §2, with “cells in mouse spleen at 50” for “cells in tumor at 50”, “(reference value: 10.8%)” for “(reference value: 2.57%)”; type: functional; conditions: time 15 day
[10] = tested on: Mus musculus; test: Immunomodulatory effect in C57BL/6 mouse allografted with mouse MC38 cells assessed as increase in tumor infiltrating lymphocytes by measuring increase in CD3+ CD4+ cells at 50 mg/kg, po treated 5 days after cell inoculation 19 th day by flow cytometry analysis; type: functional, organism-based; conditions: time 15.0 day
[11] = tested on: Mus musculus; test: Immunomodulatory effect in C57BL/6 mouse allografted mouse MC38 cells assessed as increase in tumor infiltrating lymphocytes by measuring increase in […] in mouse blood at 50 mg/kg, po treated 5 days after cell inoculation 19 th day by flow cytometry analysis (reference value: 0.35%); type: functional; conditions: time 15 day
[12] = tested on: Mus musculus; test: as §3, with “[…] in mouse lymph nodes at 50” for “cells in tumor at 50”, “(reference value: 20.3%)” for “(reference value: 2.32%)”; type: functional; conditions: time 15 day
[13] = tested on: Mus musculus; test: Induction of PD-L1 expression in tumor in C57BL/6 mouse allografted with mouse MC38 cells in presence of NP19 PD-L1 inhibitor at 50 mg/kg, po treated 5 days after cell inoculation 19 th day by immunofluorescence analysis; type: functional, organism-based; conditions: time 15.0 day
[14] = tested on: Mus musculus; test: as §3, with “[…] in mouse spleen at 50” for “cells in tumor at 50”, “(reference value: 13.6%)” for “(reference value: 2.32%)”; type: functional; conditions: time 15 day

With Cc1c(COc2cc(OCc3cccc(C#N)c3)c(CNC(C)(C)C(=O)O)cc2Cl)cccc1-c1ccccc1 as the compound, how does the Activity [1] read?
Its Activity is 0.38%.

What about the Activity [2] of the same compound?
The Activity was 11.2%.

And the Activity [3]?
The Activity was “inactive”.

And the Activity [4]?
Its Activity is “Active”.

What about the inhibition in vivo at 50 mg/kg [5] of the same compound?
Its inhibition in vivo at 50 mg/kg is 8%.

And the Activity [6]?
Its Activity is 2.69%.

What about the Activity [7] of the same compound?
Its Activity is 3.18%.

And the bioavailability [8]?
The bioavailability was < 5%.

And the Activity [9]?
Its Activity is 10.2%.

What about the Activity [10] of the same compound?
The Activity was “inactive”.

What about the Activity [11] of the same compound?
Its Activity is 0.42%.

And the Activity [12]?
The Activity was 18.9%.

What about the Activity [13] of the same compound?
The Activity was “inactive”.

And the Activity [14]?
Its Activity is 12.1%.
